Our source for the IC50 values is patent US8703768B2, “Nitrogen containing heteroaryl compounds” (Hoffmann-La Roche Inc., priority 2010, dated 2014).

The experiment addresses human PDE10A (Homo sapiens (Human), UniProt Q9Y233). Description: human PDE10A full length Scintillation Proximity Assay (SPA). Format: biochemical. The settings on record: 50 nM cGMP and 50 nM [3H]-cGMP, 20 minutes at room temperature; read-out: PDE10A inhibition IC50. Put shortly:
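Radiometric SPA read-out: after 20 min at room temperature with [^3H]-cGMP/cGMP substrate, zinc sulphate (18 mM) bead stop reagent added and counts read after 1 h. Non-specific signal defined without enzyme; full-length protein used.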

Sequence of human PDE10A (Q9Y233 other isoform, or with tags, fused parts or gaps): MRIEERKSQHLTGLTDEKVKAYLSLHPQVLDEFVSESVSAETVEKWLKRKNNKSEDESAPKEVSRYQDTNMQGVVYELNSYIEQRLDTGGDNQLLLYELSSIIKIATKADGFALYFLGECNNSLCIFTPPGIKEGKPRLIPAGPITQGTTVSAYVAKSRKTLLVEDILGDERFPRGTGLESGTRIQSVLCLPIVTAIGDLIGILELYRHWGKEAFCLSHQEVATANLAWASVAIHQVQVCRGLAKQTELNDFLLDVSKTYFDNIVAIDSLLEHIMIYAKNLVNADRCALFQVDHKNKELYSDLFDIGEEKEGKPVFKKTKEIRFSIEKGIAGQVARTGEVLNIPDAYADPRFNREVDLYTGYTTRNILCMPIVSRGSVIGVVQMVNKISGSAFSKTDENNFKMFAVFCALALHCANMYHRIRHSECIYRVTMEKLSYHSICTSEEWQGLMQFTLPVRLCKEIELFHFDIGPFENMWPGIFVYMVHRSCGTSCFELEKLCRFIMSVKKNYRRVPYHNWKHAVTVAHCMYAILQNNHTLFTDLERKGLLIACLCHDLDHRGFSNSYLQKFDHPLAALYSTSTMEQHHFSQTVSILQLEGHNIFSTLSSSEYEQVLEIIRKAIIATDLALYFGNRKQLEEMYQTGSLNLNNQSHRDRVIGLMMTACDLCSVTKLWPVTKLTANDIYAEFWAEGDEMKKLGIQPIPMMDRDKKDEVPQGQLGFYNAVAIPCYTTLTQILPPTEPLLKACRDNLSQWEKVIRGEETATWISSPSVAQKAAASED

For orientation: IC50 means the concentration needed to halve the response being measured. For `CN1CC(NC(=O)c2c(NC(=O)c3nc(C4CC4)cnc3Nc3cncnc3)cnn2C)C1` [Example 315, 6-Cyclopropyl-3-(pyrimidin-5-ylamino)-pyrazine-2-carboxylic acid [1-methyl-5-(1-methyl-azetidin-3-ylcarbamoyl)-1H-pyrazol-4-yl]-amide], the IC50 turned out to be 11.1 nM. As for `CN(C)C(=O)c1c(NC(=O)c2nc(C3CC3)cnc2Nc2cncnc2)ccc(F)c1F` [Example 316, 6-Cyclopropyl-3-(pyrimidin-5-ylamino)-pyrazine-2-carboxylic acid (2-dimethylcarbamoyl-3,4-difluoro-phenyl)-amide], the figure is 24.1 nM; as for `CNC(=O)c1c(NC(=O)c2nc(C3CC3)cnc2Nc2cncnc2)ccc(F)c1F` [Example 317, 6-Cyclopropyl-3-(pyrimidin-5-ylamino)-pyrazine-2-carboxylic acid (3,4-difluoro-2-methylcarbamoyl-phenyl)-amide], 2.7 nM. As for `CC(C)(O)CNC(=O)c1c(NC(=O)c2nc(C3CC3)cnc2Nc2cncnc2)ccc(F)c1F` [Example 318, 6-Cyclopropyl-3-(pyrimidin-5-ylamino)-pyrazine-2-carboxylic acid [3,4-difluoro-2-(2-hydroxy-2-methyl-propylcarbamoyl)-phenyl]-amide], the IC50 is 4.6 nM.

As for `O=C(Nc1ccc(F)c(F)c1C(=O)N1CCC1)c1nc(C2CC2)cnc1Nc1cncnc1` [Example 319, 6-Cyclopropyl-3-(pyrimidin-5-ylamino)-pyrazine-2-carboxylic acid [2-(azetidine-1-carbonyl)-3,4-difluoro-phenyl]-amide], the half-maximal inhibitory concentration (IC50) was determined as 15.5 nM. As for `O=C(Nc1c(C(=O)N2CCC2)ccc(F)c1F)c1nc(C2CC2)cnc1Nc1cncnc1` [Example 320, 6-Cyclopropyl-3-(pyrimidin-5-ylamino)-pyrazine-2-carboxylic acid [6-(azetidine-1-carbonyl)-2,3-difluoro-phenyl]-amide], the figure is 86.3 nM.

As to `CCOC(=O)CCc1ccc(NC(=O)c2nc(C3CC3)cnc2Nc2cncnc2)c(C(=O)NC)c1` [Example 321, 3-(4-{[6-Cyclopropyl-3-(pyrimidin-5-ylamino)-pyrazine-2-carbonyl]-amino}-3-methylcarbamoyl-phenyl)-propionic acid ethyl ester], the IC50 was 0.6 nM.

As for `CNC(=O)COc1ccc(NC(=O)c2nc(C3CC3)cnc2Nc2cncnc2)c(C(=O)NC)c1` [Example 322, 6-Cyclopropyl-3-(pyrimidin-5-ylamino)-pyrazine-2-carboxylic acid (2-methylcarbamoyl-4-methylcarbamoylmethoxy-phenyl)-amide], the half-maximal inhibitory concentration (IC50) is 1.7 nM.

Consider `O=C(Nc1cc(F)cc(F)c1C(=O)N1CCC1)c1nc(C2CC2)cnc1Nc1cncnc1` [Example 323, 6-Cyclopropyl-3-(pyrimidin-5-ylamino)-pyrazine-2-carboxylic acid [2-(azetidine-1-carbonyl)-3,5-difluoro-phenyl]-amide], for which the IC50 came out at 35.9 nM. With `CC(C)(O)CNC(=O)c1c(F)cc(F)cc1NC(=O)c1nc(C2CC2)cnc1Nc1cncnc1` [Example 324, 6-Cyclopropyl-3-(pyrimidin-5-ylamino)-pyrazine-2-carboxylic acid [3,5-difluoro-2-(2-hydroxy-2-methyl-propylcarbamoyl)-phenyl]-amide], the half-inhibitory concentration (IC50) amounted to 1.1 nM. As for `CN(C)C(=O)c1ccc(F)c(F)c1NC(=O)c1nc(C2CC2)cnc1Nc1cncnc1` [Example 325, 6-Cyclopropyl-3-(pyrimidin-5-ylamino)-pyrazine-2-carboxylic acid (6-dimethylcarbamoyl-2,3-difluoro-phenyl)-amide], the figure is 335 nM; as for `CC(C)(O)CNC(=O)c1ccc(F)c(F)c1NC(=O)c1nc(C2CC2)cnc1Nc1cncnc1` [Example 326, 6-Cyclopropyl-3-(pyrimidin-5-ylamino)-pyrazine-2-carboxylic acid [2,3-difluoro-6-(2-hydroxy-2-methyl-propylcarbamoyl)-phenyl]-amide], 2.7 nM.

Regarding `CNC(=O)c1cc(CCC(=O)O)ccc1NC(=O)c1nc(C2CC2)cnc1Nc1cncnc1` [Example 328, 3-(4-{[6-Cyclopropyl-3-(pyrimidin-5-ylamino)-pyrazine-2-carbonyl]-amino}-3-methylcarbamoyl-phenyl)-propionic acid], the IC50 was determined as 0.4 nM.

For the compound `CC(C)c1ncc(Nc2cncnc2)c(C(=O)Nc2cccnc2C(=O)NCC(C)(C)O)n1` [Example 329, 2-Isopropyl-5-(pyrimidin-5-ylamino)-pyrimidine-4-carboxylic acid [2-(2-hydroxy-2-methyl-propylcarbamoyl)-pyridin-3-yl]-amide], the IC50 was 2.9 nM.

Consider `CC(C)(O)CNC(=O)c1ncccc1NC(=O)c1nc(C(C)(C)C)ncc1Nc1cncnc1` [Example 330, 2-tert-Butyl-5-(pyrimidin-5-ylamino)-pyrimidine-4-carboxylic acid [2-(2-hydroxy-2-methyl-propylcarbamoyl)-pyridin-3-yl]-amide], for which the IC50 is 1.1 nM. In the case of `CC(C)Cc1ncc(Nc2cncnc2)c(C(=O)Nc2cccnc2C(=O)NCC(C)(C)O)n1` [Example 331, 2-Isobutyl-5-(pyrimidin-5-ylamino)-pyrimidine-4-carboxylic acid [2-(2-hydroxy-2-methyl-propylcarbamoyl)-pyridin-3-yl]-amide] it was 3.1 nM. In the case of `CNC(=O)c1c(NC(=O)c2nc(CC(C)C)ncc2Nc2cncnc2)cnn1C` [Example 332, 2-Isobutyl-5-(pyrimidin-5-ylamino)-pyrimidine-4-carboxylic acid (1-methyl-5-methylcarbamoyl-1H-pyrazol-4-yl)-amide] it was 12.8 nM; in that of `CNC(=O)c1c(NC(=O)c2nc(N3CCN(C)CC3)cnc2Nc2cncnc2)cnn1C` [Example 333, 4-Methyl-5′-(pyrimidin-5-ylamino)-3,4,5,6-tetrahydro-2H-[1,2]bipyrazinyl-6′-carboxylic acid (1-methyl-5-methylcarbamoyl-1H-pyrazol-4-yl)-amide], 691 nM; in that of `CON(C)C(=O)c1c(NC(=O)c2nc(C3CC3)cnc2Nc2cncnc2)cnn1C` [Example 334, 6-Cyclopropyl-3-(pyrimidin-5-ylamino)-pyrazine-2-carboxylic acid [5-(methoxy-methyl-carbamoyl)-1-methyl-1H-pyrazol-4-yl]-amide], 2.2 nM. In the case of `Cn1ncc(NC(=O)c2nc(C3CC3)cnc2Nc2cncnc2)c1C(=O)N1CCCO1` [Example 335, 6-Cyclopropyl-3-(pyrimidin-5-ylamino)-pyrazine-2-carboxylic acid [5-(isoxazolidine-2-carbonyl)-1-methyl-1H-pyrazol-4-yl]-amide] it was 0.8 nM.

In the case of `Cn1ncc(NC(=O)c2nc(C3CC3)cnc2Nc2cncnc2)c1C(=O)NC1CCCC1O` (centres unmarked) [Example 336, 6-Cyclopropyl-3-(pyrimidin-5-ylamino)-pyrazine-2-carboxylic acid [5-(2-hydroxy-cyclopentylcarbamoyl)-1-methyl-1H-pyrazol-4-yl]-amide], the IC50 amounted to 5.3 nM. In the case of `CNC(=O)c1c(NC(=O)c2nc(OCC(F)(F)F)ncc2Nc2cncnc2)cnn1C` [Example 337, 5-(Pyrimidin-5-ylamino)-2-(2,2,2-trifluoro-ethoxy)-pyrimidine-4-carboxylic acid (1-methyl-5-methylcarbamoyl-1H-pyrazol-4-yl)-amide] it was 126 nM; in that of `CNC(=O)c1cc(OCC(C)(C)O)ccc1NC(=O)c1nc(C2CC2)cnc1Nc1cncnc1` [Example 338, 6-Cyclopropyl-3-(pyrimidin-5-ylamino)-pyrazine-2-carboxylic acid [4-(2-hydroxy-2-methyl-propoxy)-2-methylcarbamoyl-phenyl]-amide], 2.1 nM; in that of `CNC(=O)c1c(NC(=O)c2nc(OCC(F)(F)F)cnc2Nc2cncnc2)cnn1C` [Example 339, 3-(Pyrimidin-5-ylamino)-6-(2,2,2-trifluoro-ethoxy)-pyrazine-2-carboxylic acid (1-methyl-5-methylcarbamoyl-1H-pyrazol-4-yl)-amide], 49.3 nM. Turning to `CNC(=O)c1c(NC(=O)c2nc(C(C)(C)O)ncc2Nc2cncnc2)cnn1C` [Example 340, 2-(1-Hydroxy-1-methyl-ethyl)-5-(pyrimidin-5-ylamino)-pyrimidine-4-carboxylic acid (1-methyl-5-methylcarbamoyl-1H-pyrazol-4-yl)-amide], the IC50 amounted to 250 nM. In the case of `CNC(=O)c1c(NC(=O)c2nc(C(C)(C)O)cnc2Nc2cncnc2)cnn1C` [Example 341, 6-(1-Hydroxy-1-methyl-ethyl)-3-(pyrimidin-5-ylamino)-pyrazine-2-carboxylic acid (1-methyl-5-methylcarbamoyl-1H-pyrazol-4-yl)-amide], the IC50 came to 28 nM.
